Tests used:
[1] = 308.15 K, Drop volume
[2] = xn = mol fraction of the nth substance listed; details: 308.15 K, Drop volume

Cc1ccc(C)cc1 [1,4-dimethylbenzene]
Details | surface tension liquid-gas [mN/m]
[1] | 26.29

Cc1ccc(C)cc1 [1,4-dimethylbenzene] + CCCCCCCC
[2]
Details | surface tension liquid-gas [mN/m]
x1 = 0.0488 | 20.02
x1 = 0.109 | 20.25
x1 = 0.1953 | 20.52
x1 = 0.2973 | 20.96
x1 = 0.3959 | 21.41
x1 = 0.4978 | 21.91
x1 = 0.5503 | 22.2
x1 = 0.5935 | 22.46
x1 = 0.6966 | 23.11
x1 = 0.8004 | 23.93
x1 = 0.9017 | 24.92
x1 = 0.9504 | 25.5

Cc1ccc(C)cc1 [1,4-dimethylbenzene] + CCCCCCCCCC
[2]
Details | surface tension liquid-gas [mN/m]
x1 = 0.1047 | 22.18
x1 = 0.2152 | 22.39
x1 = 0.2977 | 22.57
x1 = 0.3945 | 22.79
x1 = 0.4993 | 23.11
x1 = 0.549 | 23.28
x1 = 0.5997 | 23.46
x1 = 0.7004 | 23.88
x1 = 0.8018 | 24.47
x1 = 0.9004 | 25.2
x1 = 0.9501 | 25.67

Cc1ccc(C)cc1 [1,4-dimethylbenzene] + COC(=O)OC
[2]
Details | surface tension liquid-gas [mN/m]
x2 = 0.0503 | 26.19
x2 = 0.1937 | 25.97
x2 = 0.2988 | 25.84
x2 = 0.4013 | 25.76
x2 = 0.5016 | 25.7
x2 = 0.6032 | 25.67
x2 = 0.7029 | 25.67
x2 = 0.7964 | 25.74
x2 = 0.8945 | 25.98
x2 = 0.9442 | 26.13

CCCCCCCCCC [decane]
Details | surface tension liquid-gas [mN/m]
[1] | 22.1

CCCCCCCCCC [decane] + COC(=O)OC
[2]
Details | surface tension liquid-gas [mN/m]
x2 = 0.0512 | 21.95
x2 = 0.09 | 21.92
x2 = 0.2006 | 21.9
x2 = 0.2853 | 21.92
x2 = 0.3971 | 21.97
x2 = 0.4949 | 22.11
x2 = 0.5987 | 22.01
x2 = 0.6988 | 22.18
x2 = 0.7971 | 22.54
x2 = 0.8983 | 23.81
x2 = 0.9505 | 24.82

CCOC(=O)OCC [diethyl carbonate]
Details | surface tension liquid-gas [mN/m]
[1] | 24.02

CCOC(=O)OCC [diethyl carbonate] + CCCCCCCC
[2]
Details | surface tension liquid-gas [mN/m]
x1 = 0.049 | 19.83
x1 = 0.1008 | 19.89
x1 = 0.2 | 19.91
x1 = 0.2969 | 20.05
x1 = 0.3972 | 20.26
x1 = 0.4971 | 20.5
x1 = 0.5495 | 20.63
x1 = 0.5991 | 20.79
x1 = 0.695 | 21.16
x1 = 0.7938 | 21.7
x1 = 0.8978 | 22.63
x1 = 0.9504 | 23.33

CCOC(=O)OCC [diethyl carbonate] + CCCCCCCCCC
[2]
Details | surface tension liquid-gas [mN/m]
x1 = 0.0512 | 21.9
x1 = 0.0983 | 21.84
x1 = 0.1997 | 21.75
x1 = 0.2968 | 21.78
x1 = 0.406 | 21.84
x1 = 0.499 | 21.88
x1 = 0.5621 | 21.96
x1 = 0.5994 | 21.99
x1 = 0.6966 | 22.19
x1 = 0.7951 | 22.49
x1 = 0.9018 | 23.1
x1 = 0.9511 | 23.5

CCOC(=O)OCC [diethyl carbonate] + Cc1ccc(C)cc1
[2]
Details | surface tension liquid-gas [mN/m]
x1 = 0.0995 | 25.98
x1 = 0.2009 | 25.68
x1 = 0.2985 | 25.42
x1 = 0.3971 | 25.18
x1 = 0.4956 | 24.94
x1 = 0.5433 | 24.83
x1 = 0.6007 | 24.7
x1 = 0.6457 | 24.6
x1 = 0.6995 | 24.49
x1 = 0.7986 | 24.3
x1 = 0.899 | 24.12
x1 = 0.9497 | 24.06

COC(=O)OC [dimethyl carbonate]
Details | surface tension liquid-gas [mN/m]
[1] | 26.55

COC(=O)OC [dimethyl carbonate] + CCCCCCCC
[2]
Details | surface tension liquid-gas [mN/m]
x1 = 0.0503 | 19.8
x1 = 0.0976 | 19.78
x1 = 0.196 | 19.85
x1 = 0.2941 | 19.93
x1 = 0.3969 | 20.09
x1 = 0.495 | 20.25
x1 = 0.5455 | 20.39
x1 = 0.5971 | 20.54
x1 = 0.6977 | 20.8
x1 = 0.7977 | 21.47
x1 = 0.8983 | 23.04
x1 = 0.9492 | 24.53

CCCCCCCC [octane]
Details | surface tension liquid-gas [mN/m]
[1] | 19.9
